Assay results taken from ChEMBL document CHEMBL5584244, “Discovery of novel pyrrolo[2,1-c][1,4]benzodiazepine-3,11-dione (PBD) derivatives as selective HDAC6 inhibitors for the efficient treatment of idiopathic pulmonary fibrosis (IPF) in vitro and in vivo” (Eur J Med Chem, 2024).
Activity calls are given as the source filed them. No cut-off for these calls is given here.

Legend:
Histone deacetylase 1 = Histone deacetylase 1 (Homo sapiens, UniProt Q13547); assay: Inhibition of C-terminal His6/Flag-tagged recombinant human full length HDAC1 using Boc-Lys (Ac)-AMC as substrate incubated for 120 mins by fluorescence analysis
Histone deacetylase 1, sequence (Q13547 whole entry): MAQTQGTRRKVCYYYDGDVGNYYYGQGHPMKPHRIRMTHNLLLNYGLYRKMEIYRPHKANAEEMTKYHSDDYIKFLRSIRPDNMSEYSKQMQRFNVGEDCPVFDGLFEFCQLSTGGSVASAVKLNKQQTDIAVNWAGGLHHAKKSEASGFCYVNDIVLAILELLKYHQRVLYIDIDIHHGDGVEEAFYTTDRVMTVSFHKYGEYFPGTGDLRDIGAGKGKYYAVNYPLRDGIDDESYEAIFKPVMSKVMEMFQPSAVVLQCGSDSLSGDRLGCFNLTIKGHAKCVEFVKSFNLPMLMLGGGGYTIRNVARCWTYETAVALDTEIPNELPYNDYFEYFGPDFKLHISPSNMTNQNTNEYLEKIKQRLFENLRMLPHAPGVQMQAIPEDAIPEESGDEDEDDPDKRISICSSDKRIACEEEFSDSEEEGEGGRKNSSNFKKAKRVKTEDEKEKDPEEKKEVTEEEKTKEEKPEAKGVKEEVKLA

Histone deacetylase 11 = target: T1, Histone deacetylase 11 (Homo sapiens, UniProt Q96DB2); assay: Inhibition of recombinant human full length HDAC11 using Boc-Lys (Tfa)-AMC as substrate incubated for 120 mins by fluorescence analysis
T1 sequence (Q96DB2 whole entry): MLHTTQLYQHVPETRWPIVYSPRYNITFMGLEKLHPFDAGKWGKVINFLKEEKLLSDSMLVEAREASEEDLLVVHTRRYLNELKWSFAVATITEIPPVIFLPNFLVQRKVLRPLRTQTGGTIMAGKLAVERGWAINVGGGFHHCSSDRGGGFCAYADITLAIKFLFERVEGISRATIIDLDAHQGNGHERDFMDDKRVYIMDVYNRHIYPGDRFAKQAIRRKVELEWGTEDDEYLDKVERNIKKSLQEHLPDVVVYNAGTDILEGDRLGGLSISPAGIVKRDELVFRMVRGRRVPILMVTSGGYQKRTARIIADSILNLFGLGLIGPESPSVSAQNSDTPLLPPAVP

[1] = target: T2, Protein deacetylase HDAC6 (Homo sapiens) (UniProt Q9UBN7); assay: Inhibition of HDAC6 in TGF-beta1-induced HELF cells assessed as upregulation of acetylated histone H3 level at 2.5 to 10 uM by Western blot analysis; type: cell-based; conditions: dose 2.5-10 µM
T2 sequence (whole entry): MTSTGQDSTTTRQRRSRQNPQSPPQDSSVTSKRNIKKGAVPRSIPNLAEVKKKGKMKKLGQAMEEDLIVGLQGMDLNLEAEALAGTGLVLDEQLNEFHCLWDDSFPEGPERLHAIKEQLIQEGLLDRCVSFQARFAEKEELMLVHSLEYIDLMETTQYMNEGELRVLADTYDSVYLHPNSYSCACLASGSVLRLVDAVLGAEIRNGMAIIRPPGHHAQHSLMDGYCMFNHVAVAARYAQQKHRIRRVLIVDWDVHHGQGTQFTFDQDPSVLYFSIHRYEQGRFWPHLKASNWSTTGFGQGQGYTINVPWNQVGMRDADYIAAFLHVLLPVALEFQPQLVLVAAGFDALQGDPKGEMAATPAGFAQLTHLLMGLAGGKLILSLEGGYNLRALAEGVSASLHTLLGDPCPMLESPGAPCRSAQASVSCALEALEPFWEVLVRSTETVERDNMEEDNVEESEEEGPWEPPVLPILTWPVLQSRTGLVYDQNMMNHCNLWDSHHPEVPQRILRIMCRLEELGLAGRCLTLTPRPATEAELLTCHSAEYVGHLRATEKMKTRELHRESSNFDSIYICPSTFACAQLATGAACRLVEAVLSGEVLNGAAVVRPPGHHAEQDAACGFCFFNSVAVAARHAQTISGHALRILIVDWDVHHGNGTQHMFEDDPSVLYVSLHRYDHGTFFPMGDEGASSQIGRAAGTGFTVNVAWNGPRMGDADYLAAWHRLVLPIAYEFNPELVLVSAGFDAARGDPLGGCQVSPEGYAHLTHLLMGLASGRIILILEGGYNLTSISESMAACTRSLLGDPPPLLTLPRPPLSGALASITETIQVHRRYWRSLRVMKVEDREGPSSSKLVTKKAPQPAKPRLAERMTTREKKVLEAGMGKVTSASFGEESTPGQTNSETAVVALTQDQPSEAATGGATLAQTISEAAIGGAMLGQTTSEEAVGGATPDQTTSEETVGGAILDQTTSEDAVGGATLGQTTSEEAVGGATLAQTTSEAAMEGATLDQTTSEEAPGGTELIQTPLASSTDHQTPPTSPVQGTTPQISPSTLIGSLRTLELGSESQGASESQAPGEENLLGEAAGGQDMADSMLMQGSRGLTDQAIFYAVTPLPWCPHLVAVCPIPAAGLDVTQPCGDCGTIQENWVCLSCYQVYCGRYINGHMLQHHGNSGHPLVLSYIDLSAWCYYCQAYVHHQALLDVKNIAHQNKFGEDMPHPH

HELF = assay: Anti-pulmonary fibrosis activity against TGF-beta1-induced HELF cells assessed as reduction in COL1A1 protein expression incubated for 48 hrs by Western blot analysis; type: functional, cell-based; conditions: Homo sapiens, dose 2.5-10 µM
[2] = target: Mothers against decapentaplegic homolog 3 (Homo sapiens) (UniProt P84022); assay: Inhibition of TGF-beta1-induced Smad3 protein phosphorylation level in HELF cells incubated for 48 hrs by Western blot analysis; type: cell-based; conditions: dose 2.5-10 µM
Mothers against decapentaplegic homolog 3 (Homo sapiens), sequence (P84022 2-425 limits assumed): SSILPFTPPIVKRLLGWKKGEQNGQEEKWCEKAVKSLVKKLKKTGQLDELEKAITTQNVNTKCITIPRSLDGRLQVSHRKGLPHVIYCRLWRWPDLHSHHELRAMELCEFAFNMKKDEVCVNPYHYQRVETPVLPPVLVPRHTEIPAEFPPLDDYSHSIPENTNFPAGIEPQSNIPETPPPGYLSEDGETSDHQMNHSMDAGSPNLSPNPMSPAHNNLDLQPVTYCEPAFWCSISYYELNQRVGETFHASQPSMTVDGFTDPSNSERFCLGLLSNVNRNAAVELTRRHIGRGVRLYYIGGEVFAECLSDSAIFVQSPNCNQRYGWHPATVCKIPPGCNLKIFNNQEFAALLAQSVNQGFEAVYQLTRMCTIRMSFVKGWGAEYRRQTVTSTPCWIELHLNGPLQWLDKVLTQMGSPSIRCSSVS

[3] = Intrinsic clearance in human liver at 100 uM incubated upto 60 mins by LC-MS/MS analysis; type: ADME, tissue-based; conditions: read-out: CLH
Mus musculus [4] = assay: Anti-pulmonary fibrosis activity in bleomycin-induced C57BL/6 mouse model of pulmonary fibrosis assessed as increase in body weight at 50 to 100 mg/kg, ip for 3 weeks; type: functional, organism-based; conditions: dose 50-100 mg/kg
Mus musculus [5] = assay: Anti-pulmonary fibrosis activity in bleomycin-induced C57BL/6 mouse model of pulmonary fibrosis assessed as recovering mental state at 50 to 100 mg/kg, ip for 3 weeks; type: functional, organism-based; conditions: dose 50-100 mg/kg
Mus musculus [6] = assay: Anti-pulmonary fibrosis activity in bleomycin-induced C57BL/6 mouse model of pulmonary fibrosis assessed as decrease structural damage in lung at 50 to 100 mg/kg, ip for 3 weeks by H and E staining based fluorescence microscopic analysis; type: functional, organism-based; conditions: dose 50-100 mg/kg
Mus musculus [7] = assay: Anti-pulmonary fibrosis activity in bleomycin-induced C57BL/6 mouse model of pulmonary fibrosis assessed as decrease in collapse of the alveolar cavity in lung at 50 to 100 mg/kg, ip for 3 weeks by H and E staining based fluorescence microscopic analysis; type: functional, organism-based; conditions: dose 50-100 mg/kg
Mus musculus [8] = assay: Anti-pulmonary fibrosis activity in bleomycin-induced C57BL/6 mouse model of pulmonary fibrosis assessed as decrease in thickening of the alveolar wall in lung at 50 to 100 mg/kg, ip for 3 weeks by H and E staining based fluorescence microscopic analysis; type: functional, organism-based; conditions: dose 50-100 mg/kg
Mus musculus [9] = assay: Anti-pulmonary fibrosis activity in bleomycin-induced C57BL/6 mouse model of pulmonary fibrosis assessed as decrease in collagen level in lung at 50 to 100 mg/kg, ip for 3 weeks by Masson trichrome staining based microscopic analysis; type: functional, organism-based; conditions: dose 50-100 mg/kg
Mus musculus [10] = assay: Anti-pulmonary fibrosis activity in bleomycin-induced C57BL/6 mouse model of pulmonary fibrosis assessed as decrease in thickening of the alveolar wall in lung at 50 to 100 mg/kg, ip for 3 weeks by Masson trichrome staining based microscopic analysis; type: functional, organism-based; conditions: dose 50-100 mg/kg
Mus musculus [11] = assay: Anti-pulmonary fibrosis activity in bleomycin-induced C57BL/6 mouse model of pulmonary fibrosis assessed as decrease in collagen fiber deposition in lung at 50 to 100 mg/kg, ip for 3 weeks by Masson trichrome staining based microscopic analysis; type: functional, organism-based; conditions: dose 50-100 mg/kg
Mus musculus [12] = assay: Anti-pulmonary fibrosis activity in bleomycin-induced ip dosed C57BL/6 mouse model of pulmonary fibrosis assessed as inhibition of Smad2 protein phosphorylation level in lung for 3 weeks by immunohistochemical analysis; type: functional, organism-based; conditions: dose 50-100 mg/kg
Mus musculus [13] = assay: Anti-pulmonary fibrosis activity in bleomycin-induced ip dosed C57BL/6 mouse model of pulmonary fibrosis assessed as inhibition of Smad3 protein phosphorylation level in lung at for 3 weeks by immunohistochemical analysis; type: functional, organism-based; conditions: dose 50-100 mg/kg

- IC50 (Histone deacetylase 1): 878 nM
- IC50 (Histone deacetylase 11): > 50000 nM
- inhibition [1]: inactive
- inhibition [2]: Dose-Dependent Effect
- CLint scaled at 100 µM [3]: < 8.6 mL/min/kg
Structure (SMILES): CC(=O)O.O=C(NO)c1ccc(CN2C(=O)[C@@H]3CCCN3Cc3ccccc32)cc1
- Activity (HELF): Dose-Dependent Effect
- Activity (Mus musculus [4]): Active
- Activity (Mus musculus [5]): Active
- Activity (Mus musculus [6]): Active
- Activity (Mus musculus [7]): Active
- Activity (Mus musculus [8]): inactive
- Activity (Mus musculus [9]): inactive
- Activity (Mus musculus [10]): inactive
- Activity (Mus musculus [11]): Active
- inhibition (Mus musculus [12]): Dose-Dependent Effect
- inhibition (Mus musculus [13]): Dose-Dependent Effect
